# “And” between values parts separate entries of the source, which are not always exact repeats. Equal values may be shown once. Toxic doses and inconclusive results are not listed. Square brackets hold non-standard residues; d marks the D form. Peptide text beside a SMILES is read from it. * marks the point of attachment. Cbz = O=C(OCc1ccccc1)*; Nva = CCC[CH](N)C(=O)O
# Test system: P388 leukemia ip, CD2F1 mice, survival T/C
# Test: NCI In Vivo Anticancer Drug Screen. Data for tumor model P388 Leukemia (intraperitoneal) in CD2F1 (CDF1) mice
# Details: endpoint: median survival time, higher = longer survival
# In short: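 Mice carrying the transplanted tumor received test compound or vehicle. Survival was recorded in each group, and the value is the treated-group measurement divided by that of the vehicle-treated control group.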
# [1] = dose: 50.0 mg/kg/injection, schedule: Q01DX009 (ip), vehicle: saline
# [2] = dose: 100.0 mg/kg/injection, schedule: Q01DX009 (ip), vehicle: saline
# [3] = dose: 50.0 mg/kg/injection, schedule: Q01DX009 (ip), vehicle: saline with Tween-80
# [4] = dose: 100.0 mg/kg/injection, schedule: Q01DX009 (ip), vehicle: saline with Tween-80
# [5] = dose: 12.5 mg/kg/injection, schedule: Q01DX009 (ip), vehicle: saline with Tween-80
# [6] = dose: 25.0 mg/kg/injection, schedule: Q01DX009 (ip), vehicle: saline with Tween-80
# [7] = dose: 100.0 mg/kg/injection, schedule: Q01DX001 (ip), vehicle: Klucel (hydroxypropylcellulose) (HPC)
# [8] = dose: 200.0 mg/kg/injection, schedule: Q01DX001 (ip), vehicle: Klucel (hydroxypropylcellulose) (HPC)
# [9] = dose: 50.0 mg/kg/injection, schedule: Q01DX005 (ip), vehicle: saline with Tween-80
# [10] = dose: 100.0 mg/kg/injection, schedule: Q01DX005 (ip), vehicle: saline with Tween-80
# [11] = dose: 200.0 mg/kg/injection, schedule: Q01DX005 (ip), vehicle: saline with Tween-80
# [12] = dose: 200.0 mg/kg/injection, schedule: Q04DX003 (ip), vehicle: saline with Tween-80
structure (smiles),measurement,setting,value
Cc1cc(-c2nc(-c3cc(C)c(O)c(C)c3)nc(-c3cc(C)c(O)c(C)c3)n2)cc(C)c1O,T/C,"dose: 50.0 mg/kg/injection, schedule: Q04DX003 (ip), vehicle: Klucel (hydroxypropylcellulose) (HPC)",100 % of control
same,T/C,"dose: 100.0 mg/kg/injection, schedule: Q04DX003 (ip), vehicle: Klucel (hydroxypropylcellulose) (HPC)",106 % of control
same,T/C,"dose: 200.0 mg/kg/injection, schedule: Q04DX003 (ip), vehicle: Klucel (hydroxypropylcellulose) (HPC)",105 % of control
O=C1CSC(=S)N1c1ccc(F)c(F)c1,T/C,[1],107 % of control
same,T/C,[2],106 % of control
same,T/C,"dose: 200.0 mg/kg/injection, schedule: Q01DX009 (ip), vehicle: saline",108 % of control
C=C1CC(C2OCOC3COCOC32)OC1=O (configuration not stated),T/C,"dose: 60.0 mg/kg/injection, schedule: Q01DX005 (ip), vehicle: Klucel (hydroxypropylcellulose) (HPC)",104 % of control
same,T/C,"dose: 120.0 mg/kg/injection, schedule: Q01DX005 (ip), vehicle: Klucel (hydroxypropylcellulose) (HPC)",111 % of control
CCC[CH2][Sn]([CH2]CCC)([CH2]CCN(C)C)[CH2]CCN(C)C,T/C,[3],97 % of control
same,T/C,[4],104 % of control
c1ccc(CN2C3Oc4ccccc4C2Oc2ccccc23)cc1,T/C,[5],100 % of control
same,T/C,[6],100 % of control
same,T/C,[3],91 % of control
COc1cccc(OC(=O)c2ccc(OC)c(C3=CC(=O)C=CC3=O)c2)c1,T/C,[7],94 % of control
same,T/C,[8],93 % of control
same,T/C,"dose: 400.0 mg/kg/injection, schedule: Q01DX001 (ip), vehicle: Klucel (hydroxypropylcellulose) (HPC)",89 % of control
C=CCC12CC(COc3ccccc3C(N)=O)OC1=Nc1ccccc1NC2=O (configuration not stated),T/C,[9],113 % of control
same,T/C,[10],100 % of control
same,T/C,[11],99 % of control
CNCCN1CCC(Cc2ccccc2)CC1,T/C,[1],100 % of control
same,T/C,[2],100 % of control
CCCC(NC(=O)OCc1ccccc1)C(=O)NC(CC(C)C)C(N)=O (configuration not stated) (Cbz-[Nva]-Leu-NH2; configuration not given here),T/C,"dose: 50.0 mg/kg/injection, schedule: Q01DX005 (ip), vehicle: Klucel (hydroxypropylcellulose) (HPC)",112 % of control
same,T/C,"dose: 100.0 mg/kg/injection, schedule: Q01DX005 (ip), vehicle: Klucel (hydroxypropylcellulose) (HPC)",100 % of control
same,T/C,"dose: 200.0 mg/kg/injection, schedule: Q01DX005 (ip), vehicle: Klucel (hydroxypropylcellulose) (HPC)",100 % of control
NC(N)=NCCCC(N)C(=O)N1CCCC1C(=O)O (stereo not drawn) (H-Arg-Pro-OH; configuration not given here),T/C,"dose: 50.0 mg/kg/injection, schedule: Q01DX005 (ip), vehicle: saline",101 % of control
same,T/C,"dose: 100.0 mg/kg/injection, schedule: Q01DX005 (ip), vehicle: saline",97 % of control
same,T/C,"dose: 200.0 mg/kg/injection, schedule: Q01DX005 (ip), vehicle: saline",100 % of control
CCCCCCCCCCCCC1=C(OC)C(NC(=O)CCCCCCCCCCC)=CC(=O)C1=O,T/C,"dose: 50.0 mg/kg/injection, schedule: Q01DX001 (ip), vehicle: Klucel (hydroxypropylcellulose) (HPC)",92 % of control
same,T/C,[7],88 % of control
same,T/C,[8],90 % of control
NC(N)=NC(N)=Nc1ccc2ccc3cccc4ccc1c2c34,T/C,"dose: 100.0 mg/kg/injection, schedule: Q04DX003 (ip), vehicle: saline with Tween-80",106 % of control
same,T/C,[12],111 % of control
CC12CCC3c4ccc(OP(=O)(N5CC5)N5CC5)cc4CCC3C1CCC2O (configuration not stated),T/C,[5],96 % of control and 97 % of control
same,T/C,[6],110 % of control and 96 % of control
same,T/C,[3],100 % of control and 92 % of control
same,T/C,[4],115 % of control
CCN(CC)CCNc1cccc2c(SC)ccnc12,T/C,[9],101 % of control
same,T/C,[10],104 % of control
same,T/C,[11],101 % of control
O=C(O)/C(O)=C/c1ccccc1,T/C,"dose: 25.0 mg/kg/injection, schedule: Q04DX003 (ip), vehicle: saline with Tween-80",102 % of control
same,T/C,[12],111 % of control
CCCCCCCCNC(=O)C1C(=O)N(CCCCCCCC)C(=O)/C1=N/N (configuration not stated),T/C,"dose: 100.0 mg/kg/injection, schedule: Q04DX002 (ip), vehicle: saline with Tween-80",100 % of control
same,T/C,"dose: 200.0 mg/kg/injection, schedule: Q04DX002 (ip), vehicle: saline with Tween-80",92 % of control
N#Cc1nnn(Cc2ccccc2)c1N,T/C,"dose: 6.25 mg/kg/injection, schedule: Q01DX009 (ip), vehicle: saline with Tween-80",110 % of control
same,T/C,[5],110 % of control
same,T/C,[6],108 % of control
same,T/C,[3],98 % of control and 86 % of control
